The values that follow come from article PMC3914206.

The target in experiment [1] is T1, panel of 442 kinases (Homo sapiens, UniProt O00329).
T1 construct: purchased KINOMEscan
T1 sequence (O00329 1-1044): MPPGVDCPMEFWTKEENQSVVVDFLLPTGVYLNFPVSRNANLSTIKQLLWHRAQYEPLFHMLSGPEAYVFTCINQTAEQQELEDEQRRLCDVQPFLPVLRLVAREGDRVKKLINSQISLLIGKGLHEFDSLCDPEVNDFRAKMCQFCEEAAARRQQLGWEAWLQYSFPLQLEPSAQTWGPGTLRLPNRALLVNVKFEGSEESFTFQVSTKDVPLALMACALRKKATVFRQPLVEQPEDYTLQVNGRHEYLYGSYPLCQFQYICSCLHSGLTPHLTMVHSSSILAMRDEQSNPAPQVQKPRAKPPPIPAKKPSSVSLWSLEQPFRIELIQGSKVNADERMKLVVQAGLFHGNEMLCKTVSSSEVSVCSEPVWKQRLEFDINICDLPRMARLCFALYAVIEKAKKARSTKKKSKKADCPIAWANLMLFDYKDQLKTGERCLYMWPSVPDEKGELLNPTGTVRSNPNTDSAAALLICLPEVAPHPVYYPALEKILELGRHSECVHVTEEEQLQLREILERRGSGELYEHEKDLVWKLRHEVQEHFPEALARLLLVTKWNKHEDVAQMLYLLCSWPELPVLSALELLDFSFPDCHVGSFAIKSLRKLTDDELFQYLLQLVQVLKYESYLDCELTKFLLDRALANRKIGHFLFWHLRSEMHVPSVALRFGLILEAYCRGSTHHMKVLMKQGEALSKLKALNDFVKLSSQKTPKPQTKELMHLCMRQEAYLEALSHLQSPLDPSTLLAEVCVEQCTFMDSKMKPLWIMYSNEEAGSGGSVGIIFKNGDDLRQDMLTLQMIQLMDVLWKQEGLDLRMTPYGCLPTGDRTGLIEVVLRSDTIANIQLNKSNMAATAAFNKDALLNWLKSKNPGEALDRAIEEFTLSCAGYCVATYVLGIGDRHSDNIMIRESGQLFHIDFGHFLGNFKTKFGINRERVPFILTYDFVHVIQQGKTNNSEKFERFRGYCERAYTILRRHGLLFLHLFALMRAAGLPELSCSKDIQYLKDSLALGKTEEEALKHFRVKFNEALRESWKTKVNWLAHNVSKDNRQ
It is filed as binding. The following applies: Compound Concentration 10 µM. From the text:
(§1) We assessed the selectivity of members of this scaffold using the KINOMEscan methodology across a near comprehensive panel of 442 kinases [[18,27]].

Experiment [2] concerns the target T2, panel of 442 kinases (Homo sapiens, UniProt P20794).
T2 construct: purchased KINOMEscan
T2 sequence (P20794 1-623): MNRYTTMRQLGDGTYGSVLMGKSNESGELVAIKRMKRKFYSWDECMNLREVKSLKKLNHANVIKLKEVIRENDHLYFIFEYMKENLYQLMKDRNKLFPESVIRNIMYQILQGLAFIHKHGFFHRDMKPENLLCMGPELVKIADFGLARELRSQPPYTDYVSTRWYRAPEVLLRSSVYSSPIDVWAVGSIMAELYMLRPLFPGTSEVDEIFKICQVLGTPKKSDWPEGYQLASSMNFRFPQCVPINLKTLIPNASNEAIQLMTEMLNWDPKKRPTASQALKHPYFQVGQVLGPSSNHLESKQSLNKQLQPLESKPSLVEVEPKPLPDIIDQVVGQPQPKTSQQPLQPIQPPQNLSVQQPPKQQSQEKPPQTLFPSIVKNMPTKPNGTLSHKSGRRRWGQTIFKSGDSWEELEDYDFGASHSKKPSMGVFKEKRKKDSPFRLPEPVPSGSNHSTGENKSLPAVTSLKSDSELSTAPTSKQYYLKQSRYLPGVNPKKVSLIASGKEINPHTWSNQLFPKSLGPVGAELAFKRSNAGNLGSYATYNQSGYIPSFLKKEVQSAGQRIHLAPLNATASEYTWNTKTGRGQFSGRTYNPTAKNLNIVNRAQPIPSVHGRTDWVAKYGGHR
It is filed as binding. Conditions: Compound Concentration 10 µM.
Description: as §1

On to `CCOc1cc(C(=O)N2CCC(N3CCN(C)CC3)CC2)ccc1Nc1ncc2c(n1)N(C1CCCC1)c1ccccc1C(=O)N2C` [Compound 26], for which the “KINOMEscan: PIK3CD” value at panel of 442 kinases [1] was determined as 91. On panel of 442 kinases [2], the “KINOMEscan: MAK” value came out at 100. Consider `COc1cc(C(=O)N2CCC(N3CCN(C)CC3)CC2)ccc1Nc1ncc2c(n1)N1CCc3cccc(c31)C(=O)N2C` [Compound 24], for which the “KINOMEscan: MAK” value at panel of 442 kinases [2] stood at 100. With `COc1cc(C(=O)N2CCC(N3CCN(C)CC3)CC2)ccc1Nc1ncc2c(n1)N(C)c1ccccc1C(=O)N2C` [15 (LRRK2-IN-1)], on panel of 442 kinases [1], the “KINOMEscan: PIK3CD” value was 62. For the same compound, at panel of 442 kinases [2], the “KINOMEscan: MAK” value amounted to 72. On the same counts, the results for `COc1cc(C(=O)N2CCC(N3CCN(C)CC3)CC2)ccc1Nc1ncc2c(n1)N(C1CCCC1)c1ccccc1C(=O)N2C` [Compound 25, 11-cyclopentyl-2-((2-methoxy-4-(4-(4-methylpiperazin-1-yl)piperidine-1-carbonyl)phenyl)amino)-5-methyl-5H-benzo[e]pyrimido[5,4-b][1,4]diazepin-6(11H)-one] are 100 and 100.
